From patent US20220332799A1, “HERV INHIBITORS FOR USE IN TREATING TAUOPATHIES” (Deutsches Zentrum Für Neurodegenerative Erkrankungen E.V. …, priority 2019, published 2022) come the findings set out here.

The test system of assay [1] is HEK Tau-FusionRed^sol cells. In words: Tau-FusionRed aggregate induction by coculture with T47D Tau-GFP^AD or Tau-GFP^FTLD donor cells. In kind it is cell-based, human. The conditions noted are these: T47D Tau-GFP^AD or Tau-GFP^FTLD donors pretreated one day with 10 μM, coculture 3 d in presence of drug; vs DMSO. As to the method:
FIG. 4: Human endogenous retrovirus proteins potentiate intercellular Tau aggregate induction. • a. Workflow of Amprenavir treatment. […]. Two days later, these donor cells were incubated with 10 μM Amprenavir or solvent control DMSO for 1 d. Subsequently, donor cells with NM-GFP^agg, Tau-GFP^FTLD or Tau-GFP^AD aggregates were cocultured with recipient HEK NM-mCherry^sol or HEK Tau-FusionRed^sol cells, respectively, for 1 d (NM) or 3 d (Tau) in the presence of 10 μM Amprenavir or DMSO. • b. […] Percentage of recipient HEK NM-Cherry cells that harbor induced NM-mCherry aggregates. • c., d. […] Percentage of HEK Tau-FusionRed cells that harbor Tau-FusionRed^agg after coculture with T47D Tau-GFP^agg donor cell lines (n=6, ***, p<0.001; unpaired student t test).
To examine the effect of HERV-K proteins on Tau aggregate spreading, a T47D donor cell line stably expressing Tau-GFP^sol was generated. […]
(§1) The treatment of cells with Amprenavir (10 μM; Santa Cruz) and DMSO was performed for 72 h in EV-depleted medium in T175 flasks. Afterwards, the total numbers of viable cells and the viability upon drug treatment were determined using the Vi-VELL™ XR Cell Viability Analyzer (Beckman Coulter). […]

For assay [2], the system named is HEK Tau-FusionRed^sol cells expressing murine XPR1-HA. Nature of the assay: Tau aggregate induction in recipient cells by EVs from N2a s2E Tau-GFP^CBD donor cells. In kind it is cell-based, human. The conditions noted are these: EVs from treated donors; recipients cultured in drug-containing medium, 3 d. As to the method:
To examine this effect on Tau aggregate spreading, an N2a s2E cell clone stably propagating aggregated Tau-GFP^CBD was produced (FIG. 11a). […]. Cells and EVs were analyzed for the presence of aggregated Tau-GFP. Pronase-resistant Tau-GFP was found in both cell lysate and EVs (FIG. 2q). To inhibit MuERV gene product maturation, donor cells were treated with Amprenavir for three days. Donor cells and donor cell-derived EVs were subsequently exposed for three days to recipient HEK cells expressing soluble Tau-FusionRed and the murine XPR1 receptor variant required for MuERV Env interaction. Due to this long incubation time, the coculture and EV induction assays were performed in the presence of Amprenavir (FIG. 11b). […]
Recipient cells were cultured on CellCarrier-96 plates or 384 black microplates (PerkinElmer) at appropriate cell numbers for 1 h, and then treated with 5-10 μl of prepared samples (isolated EVs or recombinant NM fibrils). […] On average, a total of 3-4×10^4 cells per well and at least 3 wells per treatment were analyzed.
as §1

SMILES strings stand for the structures. “Also recorded” adds a separate entry of the source.

As for `CC(C)CN(C[C@@H](O)[C@H](Cc1ccccc1)NC(=O)O[C@H]1CCOC1)S(=O)(=O)c1ccc(N)cc1` [Amprenavir], the “Tau aggregate induction in recipient cells” value in assay [1] is “significant decrease in Tau aggregate induction in recipient cells; also recorded: impairs Tau-FusionRed aggregate induction”. For the same molecule, the “Tau-FusionRed aggregate induction by EVs” value in assay [2] is “also decreased Tau-FusionRed aggregate induction in murine XPR1 expressing recipient cells”.
